Laboratory results from the NIST ThermoML archive (doi:10.1021/je0500025).
Where a name gives a salt, the structure may show the parent alone. ± gives the expanded uncertainty stated by the source.

Tests used:
[1] = 101 kPa, Liquid
[2] = xn = mol fraction of the nth substance listed; conditions: 101 kPa, Liquid

Structure (SMILES) | mass density ([1]; 293.15 K) | viscosity ([1]; 293.15 K) | mass density ([1]; 303.15 K) | viscosity ([1]; 303.15 K) | mass density ([1]; 313.15 K) | viscosity ([1]; 313.15 K) | mass density ([2]; 293.15 K, x1 = 1) | viscosity ([2]; 293.15 K, x1 = 1) | mass density ([2]; 303.15 K, x1 = 1) | viscosity ([2]; 303.15 K, x1 = 1) | mass density ([2]; 313.15 K, x1 = 1) | viscosity ([2]; 313.15 K, x1 = 1) | mass density ([2]; 293.15 K, x2 = 0) | viscosity ([2]; 293.15 K, x2 = 0) | mass density ([2]; 303.15 K, x2 = 0) | viscosity ([2]; 303.15 K, x2 = 0) | mass density ([2]; 313.15 K, x2 = 0) | viscosity ([2]; 313.15 K, x2 = 0)
CCC/C=C/COC(C)=O [(E)-2-hexenyl acetate] | 897.84 ± 3 kg/m3 | 0.901 ± 0.029 mPa·s | 891.78 ± 3.1 kg/m3 | 0.77 ± 0.025 mPa·s | 884.35 ± 3.2 kg/m3 | 0.666 ± 0.021 mPa·s |  |  |  |  |  |  |  |  |  |  |  | 
CCC/C=C/COC(C)=O [(E)-2-hexenyl acetate] + CCO |  |  |  |  |  |  | 897.84 ± 3 kg/m3 | 0.901 ± 0.029 mPa·s | 891.78 ± 3.1 kg/m3 | 0.77 ± 0.025 mPa·s | 884.35 ± 3.2 kg/m3 | 0.666 ± 0.021 mPa·s |  |  |  |  |  | 
CC/C=C\CCOC(C)=O [(Z)-3-hexenyl acetate] | 900.82 ± 2.9 kg/m3 | 0.893 ± 0.028 mPa·s | 893.14 ± 3 kg/m3 | 0.763 ± 0.024 mPa·s | 886.19 ± 3.2 kg/m3 | 0.66 ± 0.021 mPa·s |  |  |  |  |  |  |  |  |  |  |  | 
CC/C=C\CCOC(C)=O [(Z)-3-hexenyl acetate] + CCO |  |  |  |  |  |  | 900.82 ± 2.9 kg/m3 | 0.893 ± 0.028 mPa·s | 893.14 ± 3 kg/m3 | 0.763 ± 0.024 mPa·s | 886.19 ± 3.2 kg/m3 | 0.66 ± 0.021 mPa·s |  |  |  |  |  | 
CC/C=C\CCOC=O [(Z)-3-hexenyl formate] | 909.15 ± 3 kg/m3 | 0.599 ± 0.021 mPa·s | 906.6 ± 3 kg/m3 | 0.527 ± 0.019 mPa·s | 903.17 ± 3.1 kg/m3 | 0.469 ± 0.017 mPa·s |  |  |  |  |  |  |  |  |  |  |  | 
CC/C=C\CCOC=O [(Z)-3-hexenyl formate] + CCO |  |  |  |  |  |  | 909.15 ± 3 kg/m3 | 0.599 ± 0.021 mPa·s | 906.6 ± 3 kg/m3 | 0.527 ± 0.019 mPa·s | 903.17 ± 3.1 kg/m3 | 0.469 ± 0.017 mPa·s |  |  |  |  |  | 
CCCCOC(C)=O [butyl ethanoate] | 881.04 ± 3.2 kg/m3 | 0.732 ± 0.023 mPa·s | 871.3 ± 3.4 kg/m3 | 0.628 ± 0.02 mPa·s | 861.84 ± 3.5 kg/m3 | 0.546 ± 0.018 mPa·s |  |  |  |  |  |  |  |  |  |  |  | 
CCCCOC(C)=O [butyl ethanoate] + CCO |  |  |  |  |  |  | 881.04 ± 3.2 kg/m3 | 0.732 ± 0.023 mPa·s | 871.3 ± 3.4 kg/m3 | 0.628 ± 0.02 mPa·s | 861.84 ± 3.5 kg/m3 | 0.546 ± 0.018 mPa·s |  |  |  |  |  | 
CCO [ethanol] | 788.24 ± 4.7 kg/m3 | 1.16 ± 0.037 mPa·s | 780.73 ± 4.8 kg/m3 | 0.968 ± 0.031 mPa·s | 771.98 ± 5 kg/m3 | 0.81 ± 0.026 mPa·s |  |  |  |  |  |  |  |  |  |  |  | 
CCO [ethanol] + CC/C=C\CCOC(C)=O |  |  |  |  |  |  |  |  |  |  |  |  | 788.24 ± 4.7 kg/m3 | 1.16 ± 0.037 mPa·s | 780.73 ± 4.8 kg/m3 | 0.968 ± 0.031 mPa·s | 771.98 ± 5 kg/m3 | 0.81 ± 0.026 mPa·s
CCO [ethanol] + CC/C=C\CCOC=O |  |  |  |  |  |  |  |  |  |  |  |  | 788.24 ± 4.7 kg/m3 | 1.16 ± 0.037 mPa·s | 780.73 ± 4.8 kg/m3 | 0.968 ± 0.031 mPa·s | 771.98 ± 5 kg/m3 | 0.81 ± 0.026 mPa·s
CCO [ethanol] + CCC/C=C/COC(C)=O |  |  |  |  |  |  |  |  |  |  |  |  | 788.24 ± 4.7 kg/m3 | 1.16 ± 0.037 mPa·s | 780.73 ± 4.8 kg/m3 | 0.968 ± 0.031 mPa·s | 771.98 ± 5 kg/m3 | 0.81 ± 0.026 mPa·s
CCO [ethanol] + CCCCOC(C)=O |  |  |  |  |  |  |  |  |  |  |  |  | 788.24 ± 4.7 kg/m3 | 1.16 ± 0.037 mPa·s | 780.73 ± 4.8 kg/m3 | 0.968 ± 0.031 mPa·s | 771.98 ± 5 kg/m3 | 0.81 ± 0.026 mPa·s
